Measurements from patent US20260174829A1, “METHODS OF REDUCING TYPE 2 CYTOKINE-MEDIATED INFLAMMATION USING NEUROMEDIN PEPTIDES” (Rutgers, The State University of New Jersey, priority 2018, published 2026).

B1: IL-25: activating cytokine used in ILC2 cultures (protein, UniProt Q9H293 33-177, looked up)
Interleukin-25: YSHWPSCCPSKGQDTSEELLRWSTVPVPPLEPARPNRHPESCRASEDGPLNSRAISPWRYELDRDLNRLPQDLYHARCLCPHCVSLQTGSHMDPRGNSELLYHNQTVFYRRPCHGEKGTHKGYCLERRLYRVSLACVCVRPRVMG
B2: IL-4: cytokine known to promote ILC2 activation (protein, UniProt P05112 25-153, looked up)
Interleukin-4: HKCDITLQEIIKTLNSLTEQKTLCTELTVTDIFAASKNTTEKETFCRAATVLRQFYSHHEKDTRCLGATAQQFHRHKQLIRFLKRLDRNLWGLAGLNSCPVKEANQSTLENFLERLKTIMREKYSKCSS
B3: IL-33: cytokine known to promote ILC2 activation (protein, UniProt O95760 1-270, looked up)
Interleukin-33: MKPKMKYSTNKISTAKWKNTASKALCFKLGKSQQKAKEVCPMYFMKLRSGLMIKKEACYFRRETTKRPSLKTGRKHKRHLVLAACQQQSTVECFAFGISGVQKYTRALHDSSITGISPITEYLASLSTYNDQSITFALEDESYEIYVEDLKKDEKKDKVLLSYYESQHPSNESGDGVDGKMLMVTLSPTKDFWLHANNKEHSVELHKCEKPLPDQAFFVLHNMHSNCVSFECKTDPGVFIGVKDNHLALIKVDSSENLCTENILFKLSET

Tests used:
NMBR expression by ILC2s = assay: NMBR expression by cultured lung ILC2s, flow cytometry; format: cell-based, mouse; conditions: ILC2s day 7 post-Nb; for NMBR expression by ILC2s: survival and/or activating cytokines, day 4 post-culture; for NMBR expression levels on ILC2s: IL-2 and IL-7, overnight culture
Description: FIG. 9. Basophils regulate NMBR expression. ILC2s were sort-purified from the lung of Nb-infected mice (day 7) and stimulated with survival cytokines (IL-7 and IL-2) and also with activated basophils, IL-4 or IL-33 overnight. NMBR expression was monitored by flow cytometric analysis post-culture. Data are presented as […] mean fluorescent intensity (GMFI). Statistical comparisons were done using a Student's t-test.
FIG. 14. Prostaglandin E2 upregulates expression of NMBR on lymphocytes. Lung ILC2s were sort-purified from the lungs of mice on day 7 post-Nb and cultured with a combination of survival cytokines (IL-2 and IL-7) and/or activating cytokines (IL-25 and IL-33). In addition, cultures were treated with NMB or prostaglandin E2 (PGE2) and the expression of NMBR was measured by flow cytometric analysis on day 4 post-culture. Statistical analysis was performed using a student's t-test. Negative NMBR staining as determined by an isotype control antibody is also shown (Isot).
NMBR expression by lung ILC2s was reduced when basophils are depleted following an Nb infection. To determine whether basophils directly mediate expression of NMBR or whether they operate through intermediate pathways, ILC2s were sort-purified from the lungs of Nb-infected mice (day 7) and cultured with the survival cytokines IL-2 and IL-7. Additionally, the ILC2s were cultured with activated basophils, IL-4, or IL-33 overnight. NMBR expression was subsequently monitored by flow cytometric analysis post-culture.
To better determine the mechanisms through which basophils regulate expression of NMBR on lymphocytes, ILC2s were cultured with a combination of survival and activating cytokines in the presence or absence of NMB or prostaglandin E2 (PGE2).

TH2 cells = assay: Anti-CD3/anti-CD28 stimulated lymph node cells (day 7 post-Nb), IL-5/IL-13 ELISA; format: cell-based, mouse; conditions: LN cells day 7 post-Nb, anti-CD3 and anti-CD28, 48 hours
Procedure: FIGS. 7A-7I. Nmb treatment is sufficient to suppress allergic airway inflammation. Mice challenged with papain were treated with PBS or Nmb (i.t.) and (A) Lung ILC2s, (B) IL-5+ and IL-13+ ILC2s, and (C) eosinophils were evaluated. […] Mesenteric lymph nodes (MLNs) were isolated on day 7 post-Nb and single cells suspensions were treated with anti-CD3 and anti-CD28 in the presence or absence of Nmb for 48 hours and (E), IL-5 and (F) IL-13 were quantified in cell-free supernatants by ELISA. (F-I), Modified versions of Nmb (see Table 2) were tested for their ability to alter IL-5 and IL-13 production from anti-CD3 and anti-CD28 MLN cells isolated on day 7 post-Nb. P values were determined by two-tailed Student's t-tests. Blue asterisks represent comparisons between media treated controls and native Nmb. Red asterisks represent comparisons between media treated controls and modified version of Nmb as described in Table 2. (*,p<0.05), (**,p<0.01), (***,p<0.001) or (F-I).
FIGS. 8A-8B. Mesenteric lymph nodes (MLNs) were isolated on day 7 post-Nb and single cells suspensions were treated with anti-CD3 and anti-CD28 in the presence or absence of native Nmb or modified versions of the peptide for 48 hours and (A), IL-5 and (B) IL-13 were quantified in cell-free supernatants by ELISA. P values were determined by two-tailed Student's t-tests. Blue asterisks represent comparisons between media treated controls and native Nmb. Red asterisks represent comparisons between media treated controls and modified version of Nmb as described in Table 2. (*,p<0.05), (**,p<0.01), (***,p<0.001).
At the time points evaluated post-Nb, the majority of the type 2 cytokines are ILC2-derived (14) and any effects Nmb is having on TH2 cell responses may be difficult to detect. To address this, lung-draining LNs were isolated on day 7 post-Nb and stimulated with anti-CD3 and -CD28 to activate T cells in both the presence of absence of recombinant Nmb. LN cells treated with anti-CD3 and -CD28 produced increased amounts of IL-5, and IL-13 (FIGS. 7D, 7E).
Thus, Nmb can be employed to reduce type 2 cytokine-mediated inflammation. Native Nmb is a 10-mer peptide (SEQ ID NO: 1) that operates via its ability to bind the Nmb receptor (15). This example describes the results of an alanine scan to systematically replace various residues of the Nmb with alanine (Table 2) and the resulting ability of the variant Nmb peptides to inhibit type 2 cytokine production by TH2 cells. Further, caps were added to the native form of Nmb (SEQ ID NO: 1) and its bioactivity monitored (FIG. 5A).

Row | Molecule | capacity to inhibit IL-13 production compared to native Nmb (TH2 cells) | capacity to inhibit IL-5 production compared to native Nmb (TH2 cells) | other results
1 | CCCCC[C@H](O)/C=C/[C@H]1[C@H](O)CC(=O)[C@@H]1C/C=C\CCCC(=O)O [PGE2, prostaglandin E2, reference compound] |  |  | NMBR expression by ILC2s (NMBR expression by ILC2s): significantly upregulated
2 | Ac-GLLWATGHFM-amide (Ac-GLLWATGHFM-NH2) [J] | significantly greater capacity |  | 
3 | H2N-ANLWATGHFM-amide (H-ANLWATGHFM-NH2) | significantly greater capacity |  | 
4 | H2N-ATGHFM-amide (H-ATGHFM-NH2) [AI] | enhanced capacity |  | 
5 | H2N-GALWATGHFM-amide (H-GALWATGHFM-NH2) [B] | significantly greater capacity |  | 
6 | H2N-GLWATGHFM-amide (H-GLWATGHFM-NH2) [O] |  | reduced capacity | 
7 | H2N-GNAWATGHFM-amide (H-GNAWATGHFM-NH2) [C] | significantly greater capacity | significantly reduced capacity | 
8 | H2N-GNLAATGHFM-amide (H-GNLAATGHFM-NH2) | significantly greater capacity |  | 
9 | H2N-GNLWATAHFM-amide (H-GNLWATAHFM-NH2) | significantly reduced capacity | significantly reduced capacity | 
10 | H2N-GNLWATG-amide (H-GNLWATG-NH2) [AA] | enhanced capacity | significant enhanced capacity | 
11 | H2N-GNLWATGFM-amide (H-GNLWATGFM-NH2) [U] |  | reduced capacity | 
12 | H2N-GNLWATGH-amide (H-GNLWATGH-NH2) [X] | enhanced capacity | significant enhanced capacity | 
13 | H2N-GNLWATGHAM-amide (H-GNLWATGHAM-NH2) | significantly reduced capacity |  | 
14 | H2N-GNLWATGHF-amide (H-GNLWATGHF-NH2) |  | reduced capacity | 
15 | H2N-GNLWATGHFA-amide (H-GNLWATGHFA-NH2) | significantly greater capacity |  | 
16 | H2N-GNLWATGHFM-NHMe | significantly greater capacity |  | 

Row | Molecule | capacity to inhibit IL-13 production compared to native Nmb (TH2 cells) | capacity to inhibit IL-5 production compared to native Nmb (TH2 cells) | other results
17 | H2N-GNLWATGHM-amide (H-GNLWATGHM-NH2) [V] | reduced capacity | reduced capacity | 
18 | H2N-GNLWATHFM-amide (H-GNLWATHFM-NH2) | enhanced capacity |  | 
19 | H2N-GNLWTGHFM-amide (H-GNLWTGHFM-NH2) [R] | enhanced capacity | reduced capacity | 
20 | H2N-GNWATGHFM-amide (H-GNWATGHFM-NH2) [P] |  | reduced capacity | 
21 | H2N-LWATGH-amide (H-LWATGH-NH2) [AG] | enhanced capacity | significant enhanced capacity | 
22 | H2N-LWATGHF-amide (H-LWATGHF-NH2) [AC] | enhanced capacity |  | 
23 | H2N-LWATGHFM-amide (H-LWATGHFM-NH2) [Z] | enhanced capacity |  | 
24 | H2N-NLWATGH-amide (H-NLWATGH-NH2) [AB] | enhanced capacity |  | 
25 | H2N-NLWATGHF-amide (H-NLWATGHF-NH2) [Y] | enhanced capacity | significant enhanced capacity | 
26 | H2N-NLWATGHFM-amide (H-NLWATGHFM-NH2) |  | reduced capacity | 
27 | H2N-WATGHF-amide (H-WATGHF-NH2) [AH] | enhanced capacity | significant enhanced capacity | 
28 | H2N-WATGHFM-amide (H-WATGHFM-NH2) [AD] | enhanced capacity |  | 
29 | Methanesulfonyl-GNLWATGHFM-amide [K] | significantly greater capacity | significantly reduced capacity | 
30 | B1 |  |  | NMBR expression by ILC2s (NMBR expression by ILC2s): failed to upregulate
31 | B2 |  |  | NMBR expression levels on ILC2s (NMBR expression by ILC2s): no changes
32 | B3 |  |  | NMBR expression levels on ILC2s (NMBR expression by ILC2s): no changes; NMBR expression by ILC2s (NMBR expression by ILC2s): failed to upregulate
